# Assay results from patent US20130303535A1, “NOVEL BICYCLIC HETEROCYCLIC COMPOUND” (priority 2008, published 2013).
# Biological target: TTX resistant Na channel of human SNS-expressing cell (SNS) (Homo sapiens, UniProt Q9Y5Y9)
# Test: cell-based
# Settings: CHO-K1, compound concentration 12.5 μM; read-out: SNS inhibitory rate (%)
# Sequence of TTX resistant Na channel of human SNS-expressing cell (SNS) (Q9Y5Y9 whole entry, looked up): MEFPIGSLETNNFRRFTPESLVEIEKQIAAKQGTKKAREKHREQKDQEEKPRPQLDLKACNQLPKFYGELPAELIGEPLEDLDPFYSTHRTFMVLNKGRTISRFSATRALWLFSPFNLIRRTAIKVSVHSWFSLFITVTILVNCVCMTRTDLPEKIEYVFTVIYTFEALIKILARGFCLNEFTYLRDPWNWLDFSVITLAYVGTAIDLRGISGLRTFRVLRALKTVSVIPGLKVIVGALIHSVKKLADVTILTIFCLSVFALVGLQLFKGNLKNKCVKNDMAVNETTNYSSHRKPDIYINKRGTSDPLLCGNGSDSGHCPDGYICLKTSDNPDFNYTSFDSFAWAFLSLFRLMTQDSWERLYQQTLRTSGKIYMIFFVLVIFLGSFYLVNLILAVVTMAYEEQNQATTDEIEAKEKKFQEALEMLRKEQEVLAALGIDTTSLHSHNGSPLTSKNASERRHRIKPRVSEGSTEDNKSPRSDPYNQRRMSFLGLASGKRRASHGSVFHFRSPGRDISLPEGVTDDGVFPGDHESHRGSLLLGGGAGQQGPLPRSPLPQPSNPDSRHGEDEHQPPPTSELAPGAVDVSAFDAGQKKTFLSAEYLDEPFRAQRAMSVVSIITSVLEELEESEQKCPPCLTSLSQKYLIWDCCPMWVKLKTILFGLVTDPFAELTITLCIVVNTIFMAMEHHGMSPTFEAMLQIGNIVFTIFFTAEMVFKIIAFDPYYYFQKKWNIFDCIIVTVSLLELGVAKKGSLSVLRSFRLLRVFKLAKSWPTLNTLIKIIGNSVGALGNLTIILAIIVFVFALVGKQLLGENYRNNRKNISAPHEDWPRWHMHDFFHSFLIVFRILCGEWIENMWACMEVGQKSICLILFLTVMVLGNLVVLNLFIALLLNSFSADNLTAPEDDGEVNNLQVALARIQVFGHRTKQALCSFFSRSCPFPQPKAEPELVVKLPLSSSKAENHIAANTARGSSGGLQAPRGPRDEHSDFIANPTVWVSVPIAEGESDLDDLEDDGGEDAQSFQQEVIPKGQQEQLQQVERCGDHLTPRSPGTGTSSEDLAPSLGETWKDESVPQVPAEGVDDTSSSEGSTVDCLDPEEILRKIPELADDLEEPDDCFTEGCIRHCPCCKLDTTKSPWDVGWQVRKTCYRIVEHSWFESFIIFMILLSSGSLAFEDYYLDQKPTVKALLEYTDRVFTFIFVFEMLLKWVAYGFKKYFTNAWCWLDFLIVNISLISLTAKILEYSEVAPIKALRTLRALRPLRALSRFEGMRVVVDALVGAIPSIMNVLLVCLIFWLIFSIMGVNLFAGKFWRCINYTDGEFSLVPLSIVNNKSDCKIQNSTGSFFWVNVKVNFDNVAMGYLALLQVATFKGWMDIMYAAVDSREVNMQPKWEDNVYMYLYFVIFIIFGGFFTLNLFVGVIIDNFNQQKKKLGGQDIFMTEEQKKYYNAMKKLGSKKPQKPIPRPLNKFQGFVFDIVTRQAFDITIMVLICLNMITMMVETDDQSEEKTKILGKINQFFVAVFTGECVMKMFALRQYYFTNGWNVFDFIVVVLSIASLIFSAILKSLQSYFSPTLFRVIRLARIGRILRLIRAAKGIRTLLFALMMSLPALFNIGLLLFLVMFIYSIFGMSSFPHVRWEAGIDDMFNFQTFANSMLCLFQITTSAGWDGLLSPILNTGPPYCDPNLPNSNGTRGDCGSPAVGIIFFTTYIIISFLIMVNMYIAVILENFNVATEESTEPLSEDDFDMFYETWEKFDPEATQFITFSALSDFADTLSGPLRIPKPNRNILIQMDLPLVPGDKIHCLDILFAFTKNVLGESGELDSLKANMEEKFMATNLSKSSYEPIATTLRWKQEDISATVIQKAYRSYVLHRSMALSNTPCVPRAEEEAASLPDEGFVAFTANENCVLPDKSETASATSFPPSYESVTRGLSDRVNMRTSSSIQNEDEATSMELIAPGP
smiles,measurement,value
COCCCn1c(CN[C@@H](C)C(N)=O)nc2ccc(Oc3ccc(OC(F)(F)F)cc3)cc21 [Example 127],inhibition at 12.5 µM,93.9%
"CCOCCn1c(CN[C@@H](C)C(N)=O)nc2cc(Cl)c(Oc3ccc(F)cc3)cc21 [Example 118, N^2-{[5-chloro-1-(2-ethoxyethyl)-6-(4-fluorophenoxy)-1H-benzimidazol-2-yl]methyl}-L-alaninamide]",inhibition at 12.5 µM,64.5%
Cc1ccc(Oc2ccc3nc(CNC(C)(C)C(N)=O)n(C4CCOCC4)c3c2)cc1 [Example 140],inhibition at 12.5 µM,97.5%
CC(C)OCCn1c(CNCC(N)=O)nc2ccc(Oc3ccc(F)cc3)cc21 [Example 61],inhibition at 12.5 µM,26.1%
C[C@H](NCc1nc2ccc(Oc3ccc(F)cc3)cc2n1C1CCOCC1)C(N)=O [Example 6],inhibition at 12.5 µM,77.8%
COCCCn1c(CN[C@@H](C)C(N)=O)nc2ccc(Oc3ccc(F)cc3F)cc21 [Example 123],inhibition at 12.5 µM,96.8%
"CCOCCn1c(CN[C@@H](C)C(N)=O)nc2cc(C)c(-c3ccc(F)cc3)cc21 [Example 113, N^2-{[1-(2-ethoxyethyl)-6-(4-fluorophenyl)-5-methyl-1H-benzimidazol-2-yl]methyl}-L-alaninamide]",inhibition at 12.5 µM,64.7%
C[C@H](NCc1nc2ccc(Oc3ccccc3)cc2n1C[C@H]1CCCO1)C(N)=O [Example 20],inhibition at 12.5 µM,7.2%
CC(C)n1c(CN[C@@H](C)C(N)=O)nc2ccc(Oc3ccccc3)cc21 [Example 9],inhibition at 12.5 µM,28.9%
CCOCCCn1c(CN[C@@H](C)C(N)=O)nc2ccc(Oc3ccc(F)cc3)cc21 [Example 47],inhibition at 12.5 µM,86.6%
C[C@H](NCc1nc2ccc(Oc3ccccc3)cc2n1C[C@@H]1CCCO1)C(N)=O [Example 22],inhibition at 12.5 µM,16.4%
CCOCCn1c(CNC(C)(C)C(N)=O)nc2ccc(Oc3ccccc3)cc21 [Example 39],inhibition at 12.5 µM,48.8%
CCOCCn1c(CN[C@@H](CC)C(N)=O)nc2ccc(Oc3ccc(F)cc3)cc21 [Example 41],inhibition at 12.5 µM,99.7%
CCOCCn1c(CN[C@@H](C)C(N)=O)nc2ccc(-c3ccc(C)c(F)c3)cc21 [Example 169],inhibition at 12.5 µM,68.1%
"C[C@H](NCc1nc2ccc(Oc3ccc(F)cc3)cc2n1C1CCNCC1)C(N)=O [Example 83, N^2-{[6-(4-fluorophenoxy)-1-(piperidin-4-yl)-1H-benzimidazol-2-yl]methyl}-L-alaninamide]",inhibition at 12.5 µM,0%
COCCCn1c(CN[C@@H](C)C(N)=O)nc2ccc(Oc3ccccc3)cc21 [Example 24],inhibition at 12.5 µM,5.8%
Cc1ccc(Oc2ccc3nc(CN[C@@H](C)C(N)=O)n(C[C@H]4CCCO4)c3c2)cc1 [Example 131],inhibition at 12.5 µM,55.9%
CCOCCn1c(CN[C@@H](C)C(N)=O)nc2ccc(Oc3ccc(F)c(F)c3)cc21 [Example 48],inhibition at 12.5 µM,96.7%
C[C@H](NCc1nc2ccc(Oc3ccc(F)c(F)c3)cc2n1C1CCOCC1)C(N)=O [Example 128],inhibition at 12.5 µM,85%
CCOCCn1c(CN[C@@H](C)C(N)=O)nc2cc(F)c(-c3ccc(F)c(F)c3)cc21 [Example 183],inhibition at 12.5 µM,72.3%
NC(=O)[C@@H]1CCCN1Cc1nc2ccc(Oc3ccccc3)cc2n1CC1CCOCC1 [Example 16],inhibition at 12.5 µM,96.2%
CCOCCn1c(CNC(C)(C)C(N)=O)nc2ccc(-c3ccc(C)cc3F)cc21 [Example 166],inhibition at 12.5 µM,62.7%
CCOCCn1c(CN[C@@H](C)C(N)=O)nc2ccc(Oc3cc(F)cc(F)c3F)cc21 [Example 57],inhibition at 12.5 µM,87.6%
CCOCCn1c(CN2CCC[C@H]2C(N)=O)nc2ccc(Oc3ccc(F)cc3)cc21 [Example 15],inhibition at 12.5 µM,95.7%
"CCOCCn1c(CN[C@@H](C)C(N)=O)nc2ccc(Oc3ccc(OC)cc3)cc21 [Example 75, N^2-{[1-(2-ethoxyethyl)-6-(4-methoxyphenoxy)-1H-benzimidazol-2-yl]methyl}-L-alaninamide]",inhibition at 12.5 µM,0%
C[C@H](NCc1nc2ccc(Oc3ccccc3)cc2n1C1CCCC1)C(N)=O [Example 26],inhibition at 12.5 µM,26.6%
CCOCCn1c(CN[C@@H](C)C(N)=O)nc2ccc(-c3ccc(C)cc3)cc21 [Example 144],inhibition at 12.5 µM,6.1%
CCOCCn1c(CN[C@@H](C)C(N)=O)nc2ccc(-c3ccc(F)c(F)c3)cc21 [Example 148],inhibition at 12.5 µM,17%
CCOCCn1c(CN[C@@H](C)C(=O)N2CCNC(C(F)(F)F)C2)nc2ccc(Oc3ccc(F)cc3)cc21 (some centres unmarked) [Example 108],inhibition at 12.5 µM,85.3%
CC(C)(NCc1nc2ccc(Oc3ccccc3)cc2n1C1CCC1)C(N)=O [Example 33],inhibition at 12.5 µM,32.9%
CCOCCn1c(CN[C@@H](C)C(N)=O)nc2ccc(Oc3cc(F)c(F)c(F)c3)cc21 [Example 44],inhibition at 12.5 µM,84.9%
CCOCCn1c(CN[C@H](C)C(N)=O)nc2ccc(Oc3ccccc3)cc21 [Example 36],inhibition at 12.5 µM,0.4%
COCCCn1c(CN[C@@H](C)C(N)=O)nc2ccc(Oc3ccc(F)cc3)cc21 [Example 64],inhibition at 12.5 µM,82.7%
C[C@H](NCc1nc2ccc(Oc3ccc(F)cc3F)cc2n1C[C@H]1CCCO1)C(N)=O [Example 125],inhibition at 12.5 µM,95.9%
CCOCCn1c(CN[C@@H](C)C(N)=O)nc2ccc(Oc3ccc(Cl)cc3)cc21 [Example 27],inhibition at 12.5 µM,78.2%
C[C@H](NCc1nc2ccc(Oc3ccc(OC(F)(F)F)cc3)cc2n1CC(C)(C)O)C(N)=O [Example 103],inhibition at 12.5 µM,87.9%
COCCn1c(CNCC(N)=O)nc2ccc(Oc3ccc(F)cc3)cc21 [Example 63],inhibition at 12.5 µM,9.2%
CCOCCn1c(CN[C@@H](C)C(N)=O)nc2cc(Cl)c(-c3ccc(OC(F)(F)F)cc3)cc21 [Example 181],inhibition at 12.5 µM,0%
CCOCCn1c(CNC(C)(C)C(N)=O)nc2ccc(-c3ccc(F)cc3OC)cc21 [Example 174],inhibition at 12.5 µM,33.4%
"CCOCCn1c(CN[C@@H](C)C(N)=O)nc2c(Cl)cc(-c3ccc(F)cc3)cc21 [Example 112, N^2-{[4-chloro-1-(2-ethoxyethyl)-6-(4-fluorophenyl)-1H-benzimidazol-2-yl]methyl}-L-alaninamide]",inhibition at 12.5 µM,0%
"CCOCCn1c(CNCC(N)=O)nc2ccc(Oc3ccccc3)nc21 [Example 80, N^2-{[3-(2-ethoxyethyl)-5-phenoxy-3H-imidazo[4,5-b]pyridin-2-yl]methyl}glycinamide]",inhibition at 12.5 µM,2.5%
"CCOCCn1c(CN[C@@H](C)C(=O)NCC(C)(C)O)nc2ccc(Oc3ccc(F)cc3)cc21 [Example 87, N^2-{[1-(2-ethoxyethyl)-6-(4-fluorophenoxy)-1H-benzimidazol-2-yl]methyl}-N-(2-hydroxy-2-methylpropyl)-L-alaninamide]",inhibition at 12.5 µM,90.1%
CCOCCn1c(CN[C@@H](C)C(N)=O)nc2cc(F)c(-c3ccc(F)c(C)c3)cc21 [Example 188],inhibition at 12.5 µM,87%
"CCOCCn1c(CN[C@@H](C)C(N)=O)nc2cc(Cl)c(-c3ccc(F)cc3)cc21 [Example 92, N^2-{[5-chloro-1-(2-ethoxyethyl)-6-(4-fluorophenyl)-1H-benzimidazol-2-yl]methyl}-L-alaninamide]",inhibition at 12.5 µM,66.7%
NC(=O)[C@@H]1CCCN1Cc1nc2ccc(Oc3ccccc3)cc2n1C[C@H]1CCCO1 [Example 19],inhibition at 12.5 µM,100%
CCOCCn1c(CN[C@@H](C)C(N)=O)nc2cc(F)c(-c3ccccc3)cc21 [Example 185],inhibition at 12.5 µM,64.6%
C[C@H](NCc1nc2ccc(Oc3ccc(OC(F)(F)F)cc3)cc2n1C1CCOCC1)C(N)=O [Example 130],inhibition at 12.5 µM,42.1%
